Laboratory results published in patent US10077261B2, “Imidazolin-5-one derivative useful as FASN inhibitors for the treatment of cancer” (Janssen Pharmaceutica NV, priority 2012, dated 2018).

What was measured:
[1] = molecular target: T1, hFASN enzyme (full length) (Homo sapiens, UniProt P49327); assay: Fatty Acid Synthase (FASN) inhibition scintillation proximity assay; format: biochemical; details: for inhibition at 10 µM: read-out: Human FASN % inhibition @ 10 μM, 10 μM test compound; for IC50: read-out: Human FASN pIC50 (converted)
T1 construct: 10 μL hFASN enzyme (full length, 300 ng, purified in house); made in house
Procedure, shortened: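 Proximity read-out: hydrophobic ^3H-palmitate formed from ^3H-acetyl-CoA and malonyl-CoA binds streptavidin imaging beads, imaged at 610±20 nm at least 24 h after stopping. Enzyme was in-house purified full-length hFASN, 300 ng, in pH 7.5 phosphate/DTT buffer; compound series 30 μM down to 0.01 μM, normalized to controls, 4-parameter fit.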

A2780 ovarian cells [2] = assay: A2780 ovarian cell proliferation assay in lipid reduced medium, with palmitate (MTT); format: cell-based; details: Homo sapiens, A2780, 96 h; read-out: pIC50 A2780 Ovarian Cell, With Palmitate (converted)
Procedure, shortened: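 In this palmitate-supplemented format, compound dilutions (30 μM down to 0.01 μM) are added to cells in lipid-reduced serum with 25 μM palmitate, 0.2% fatty-acid-free BSA and 0.25% ethanol. After four days (96 h) MTT absorbance at 544 nm is recorded and fitted by minimum sum of squares.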

A2780 ovarian cells [3] = assay: A2780 ovarian cell proliferation assay in lipid reduced medium, without palmitate (MTT); format: cell-based; details: Homo sapiens, A2780, 96 h; read-out: pIC50 A2780 Ovarian Cell, Without Palmitate (converted)
[4] = system: LNCaP-Vancouver prostate cells; assay: In vitro LNCaP Vancouver prostate cell proliferation assay in lipid reduced medium; format: cell-based; details: read-out: pIC50 LNCaP_Vancouver prostate cell (converted)
[5] = system: PC-3M-Luc-C6 prostate cells; assay: In vitro PC-3M-Luc-C6 prostate cell proliferation assay in lipid reduced medium; format: cell-based; details: 96 h, read-out: pIC50 PC-3M-Luc-C6 prostate cell (converted)
[6] = molecular target: Fatty Acid Synthase Keto-reductase Domain (FASN KR) (Homo sapiens, UniProt P49327); assay: Fatty Acid Synthase keto-reductase domain (FASN KR) inhibition, NADPH oxidation at 340 nm
Fatty Acid Synthase Keto-reductase Domain (FASN KR), sequence (P49327 whole entry, the tested form may be a part): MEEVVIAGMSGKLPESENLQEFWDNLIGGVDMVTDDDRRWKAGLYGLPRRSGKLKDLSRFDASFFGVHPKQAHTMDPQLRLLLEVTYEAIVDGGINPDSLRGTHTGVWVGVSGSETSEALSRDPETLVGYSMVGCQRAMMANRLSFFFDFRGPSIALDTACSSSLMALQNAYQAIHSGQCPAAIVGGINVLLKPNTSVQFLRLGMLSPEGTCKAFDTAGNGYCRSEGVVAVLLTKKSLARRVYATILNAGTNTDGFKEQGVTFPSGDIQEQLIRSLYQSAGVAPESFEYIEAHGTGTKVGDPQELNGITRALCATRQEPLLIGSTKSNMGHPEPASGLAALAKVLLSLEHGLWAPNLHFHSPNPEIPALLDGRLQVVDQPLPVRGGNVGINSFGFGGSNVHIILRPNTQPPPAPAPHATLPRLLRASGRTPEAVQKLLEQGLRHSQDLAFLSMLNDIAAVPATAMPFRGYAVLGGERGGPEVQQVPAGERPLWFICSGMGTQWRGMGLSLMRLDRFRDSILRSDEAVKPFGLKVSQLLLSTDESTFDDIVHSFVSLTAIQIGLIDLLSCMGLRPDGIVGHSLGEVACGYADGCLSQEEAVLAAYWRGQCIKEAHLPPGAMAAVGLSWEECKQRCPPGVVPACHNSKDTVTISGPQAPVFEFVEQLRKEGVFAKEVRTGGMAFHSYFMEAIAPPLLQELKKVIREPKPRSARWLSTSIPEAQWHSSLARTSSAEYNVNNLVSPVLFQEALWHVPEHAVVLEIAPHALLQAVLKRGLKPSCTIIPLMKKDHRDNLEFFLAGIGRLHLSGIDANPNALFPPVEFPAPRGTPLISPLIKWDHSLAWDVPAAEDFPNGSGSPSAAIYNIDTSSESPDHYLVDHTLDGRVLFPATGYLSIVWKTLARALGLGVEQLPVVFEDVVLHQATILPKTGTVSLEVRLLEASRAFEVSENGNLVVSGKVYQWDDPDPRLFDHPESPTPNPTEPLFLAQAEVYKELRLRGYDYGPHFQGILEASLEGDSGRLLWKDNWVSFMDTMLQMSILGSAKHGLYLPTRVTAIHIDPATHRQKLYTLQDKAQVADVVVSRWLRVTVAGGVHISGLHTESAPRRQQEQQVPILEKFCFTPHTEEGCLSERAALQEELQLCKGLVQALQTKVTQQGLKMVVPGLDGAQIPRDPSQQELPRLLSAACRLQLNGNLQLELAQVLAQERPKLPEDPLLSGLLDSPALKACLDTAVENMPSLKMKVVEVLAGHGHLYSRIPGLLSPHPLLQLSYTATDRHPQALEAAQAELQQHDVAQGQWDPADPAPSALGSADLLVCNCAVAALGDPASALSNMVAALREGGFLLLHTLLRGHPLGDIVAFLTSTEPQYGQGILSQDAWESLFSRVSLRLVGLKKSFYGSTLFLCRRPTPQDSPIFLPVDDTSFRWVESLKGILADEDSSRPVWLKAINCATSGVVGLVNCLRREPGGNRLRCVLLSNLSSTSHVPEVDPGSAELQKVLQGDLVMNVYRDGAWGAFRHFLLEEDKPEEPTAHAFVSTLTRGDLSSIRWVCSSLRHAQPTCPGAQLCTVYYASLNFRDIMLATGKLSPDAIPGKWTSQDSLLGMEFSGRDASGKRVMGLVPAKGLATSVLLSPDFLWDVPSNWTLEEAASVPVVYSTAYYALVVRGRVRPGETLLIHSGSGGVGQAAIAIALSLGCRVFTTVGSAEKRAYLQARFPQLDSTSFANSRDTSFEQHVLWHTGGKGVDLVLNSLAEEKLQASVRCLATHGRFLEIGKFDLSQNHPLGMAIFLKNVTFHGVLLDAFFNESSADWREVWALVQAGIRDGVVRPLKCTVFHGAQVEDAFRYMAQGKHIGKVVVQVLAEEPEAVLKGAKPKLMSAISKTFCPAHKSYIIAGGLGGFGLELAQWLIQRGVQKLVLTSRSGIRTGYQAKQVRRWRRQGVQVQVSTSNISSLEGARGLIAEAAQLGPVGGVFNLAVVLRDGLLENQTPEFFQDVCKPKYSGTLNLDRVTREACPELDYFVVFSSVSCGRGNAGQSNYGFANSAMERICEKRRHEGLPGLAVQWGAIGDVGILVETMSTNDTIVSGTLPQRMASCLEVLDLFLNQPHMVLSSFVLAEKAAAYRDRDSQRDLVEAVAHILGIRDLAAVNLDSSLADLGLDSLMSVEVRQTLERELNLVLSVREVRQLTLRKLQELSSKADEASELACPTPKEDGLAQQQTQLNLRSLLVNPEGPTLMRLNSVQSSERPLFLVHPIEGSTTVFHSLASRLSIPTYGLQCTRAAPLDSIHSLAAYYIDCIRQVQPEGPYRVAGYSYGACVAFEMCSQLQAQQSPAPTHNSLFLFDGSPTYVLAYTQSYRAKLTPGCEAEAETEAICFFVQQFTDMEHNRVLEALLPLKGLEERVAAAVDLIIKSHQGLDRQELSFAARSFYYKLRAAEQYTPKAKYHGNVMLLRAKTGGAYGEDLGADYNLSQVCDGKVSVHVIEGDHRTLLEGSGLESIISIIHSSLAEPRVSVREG
Protocol: After 20 minutes incubation at room temperature the plate was measured again (T2).
The decrease in absorbance was calculated as (Absorbance before incubation T1)−(Absorbance following incubation T2).
A plot of Controlmin versus test compound concentration was fitted to a 4-parameter logistic curve using a non-linear least squares regression method.

T1 sequence (P49327 whole entry): as the sequence (P49327 whole entry, the tested form may be a part) above

Cn1cnc2cc(-c3ccc(C4=NC5(CC5)C(=O)N4CC4CN(C(=O)C5(C)CC5)C4)c(F)c3)ccc21 [compound 378, 5-(2-fluoro-4-(1-methyl-1H-benzo[d]imidazol-5-yl)phenyl)-6-((1-(1-methylcyclopropanecarbonyl)azetidin-3-yl)methyl)-4,6-diazaspiro[2.4]hept-4-en-7-one]
inhibition at 10 µM [1]: 100% | IC50 [1]: 38.9 nM | IC50 (A2780 ovarian cells [2]): > 10000 nM | IC50 (A2780 ovarian cells [3]): ~5.13 nM | IC50 [4]: 74.1 nM | IC50 [5]: 10.5 nM | IC50 [6]: 45.7 nM

Nc1cc2cc(-c3ccc(C4=NC5(CC5)C(=O)N4C[C@@H]4CCN(C(=O)C5CC5)C4)cc3)ccc2cn1 [compound 219, (R)-5-(4-(3-aminoisoquinolin-6-yl)phenyl)-6-((1-(cyclopropanecarbonyl)pyrrolidin-3-yl)methyl)-4,6-diazaspiro[2.4]hept-4-en-7-one]
inhibition at 10 µM [1]: 103% | IC50 [1]: 75.9 nM | IC50 (A2780 ovarian cells [2]): 1170 nM | IC50 (A2780 ovarian cells [3]): 67.6 nM | IC50 [4]: 302 nM | IC50 [5]: 126 nM | IC50 [6]: 263 nM

C=CC(=O)N1CCC2(CC1)N=C(c1ccc(-c3ccc4ccoc4c3)cc1)N(C[C@@H]1CCN(C(=O)C3CC3)C1)C2=O [compound 741, 8-Acryloyl-2-[4-(1-benzofuran-6-yl)phenyl]-3-{[(3R)-1-(cyclopropylcarbonyl)pyrrolidin-3-yl]methyl}-1,3,8-triazaspiro[4.5]dec-1-en-4-one]
inhibition at 10 µM [1]: 102% | IC50 [1]: 158 nM | IC50 (A2780 ovarian cells [2]): > 10000 nM | IC50 (A2780 ovarian cells [3]): ~2510 nM | IC50 [4]: 2750 nM | IC50 [5]: ~1620 nM | IC50 [6]: 537 nM

Cc1cc(-c2ccc(C3=NC4(CC4)C(=O)N3CC3CN(C(=O)C4CC4)C3)c(F)c2)cc2cnn(C)c12 [compound 520, 6-{[1-(Cyclopropylcarbonyl)azetidin-3-yl]methyl}-5-[4-(1,7-dimethyl-1H-indazol-5-yl)-2-fluorophenyl]-4,6-diazaspiro[2.4]hept-4-en-7-one]
inhibition at 10 µM [1]: 97% | IC50 [1]: 427 nM | IC50 (A2780 ovarian cells [2]): > 10000 nM | IC50 (A2780 ovarian cells [3]): 389 nM | IC50 [4]: 2570 nM | IC50 [5]: 501 nM | IC50 [6]: 631 nM
